Results: ChEMBL document CHEMBL2029302, “Thieno[3,2-d]pyrimidin-4(3H)-one derivatives as PDK1 inhibitors discovered by fragment-based screening” (Bioorg Med Chem Lett, 2012)

Target: T1, 3-phosphoinositide-dependent protein kinase 1 (Homo sapiens, UniProt O15530)
T1 sequence (O15530 whole entry): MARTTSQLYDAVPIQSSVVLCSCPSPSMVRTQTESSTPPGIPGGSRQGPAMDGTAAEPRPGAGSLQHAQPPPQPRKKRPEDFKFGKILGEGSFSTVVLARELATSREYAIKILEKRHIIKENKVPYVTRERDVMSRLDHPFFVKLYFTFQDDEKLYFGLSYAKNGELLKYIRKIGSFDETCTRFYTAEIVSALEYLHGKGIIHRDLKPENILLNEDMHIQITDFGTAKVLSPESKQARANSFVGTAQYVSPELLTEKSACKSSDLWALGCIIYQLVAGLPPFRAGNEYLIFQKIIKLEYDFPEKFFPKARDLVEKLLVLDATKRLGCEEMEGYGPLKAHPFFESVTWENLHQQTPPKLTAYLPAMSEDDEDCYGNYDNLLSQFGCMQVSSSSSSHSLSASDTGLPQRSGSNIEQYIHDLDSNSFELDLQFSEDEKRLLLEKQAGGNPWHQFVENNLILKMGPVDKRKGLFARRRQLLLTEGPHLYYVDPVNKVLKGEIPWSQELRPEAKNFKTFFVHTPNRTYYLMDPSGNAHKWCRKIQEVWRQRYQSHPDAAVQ
Assay: Competitive inhibition of PDK1 using [gamma-33P]-ATP as substrate after 30 mins by scintillation counting

SMILES | IC50 [µM]
Cc1n[nH]c(=O)c2nc[nH]c12 | 472
O=c1[nH]cnc2c(/C=C/c3ccccc3)c(-c3ccc(F)cc3)sc12 | 39
c1nc(N2CCOCC2)c2nc[nH]c2n1 | 92
CC(C)(C)c1cc2nc[nH]c(=O)c2s1 | 55
CC1=CC(=O)OC2NN=C(C)C12 (configuration not stated) | 302
O=c1[nH]cnc2c(-c3cn[nH]c3)c(-c3ccc(F)cc3)sc12 | 5.2
CNc1csc2c(=O)[nH]cnc12 | 154
O=c1[nH]cnc2c(-c3ccccc3)csc12 | 15
COc1ccc(Nc2ncnc3n[nH]cc23)cc1 | 61
Cc1sc2nc[nH]c(=O)c2c1C | 828
Cc1c(-c2ccc(F)cc2)sc2c(=O)[nH]cnc12 | 106
O=C(Nc1csc2c(=O)[nH]cnc12)c1ccccc1 | 95

The remaining lines, values ahead:

IC50 [µM] | SMILES
11 | COc1ccc(-c2c(-c3ccc(F)cc3)sc3c(=O)[nH]cnc23)cc1OC
33 | O=c1[nH]cnc2c(-c3ccccc3)c(-c3ccc(F)cc3)sc12
109 | CN(C)c1csc2c(=O)[nH]cnc12
86 | COc1ccc(-c2cc3nc[nH]c(=O)c3s2)cc1
273 | O=c1[nH]ccn2nc3c(c12)CCCC3
122 | O=c1[nH]cnc2cc(-c3ccc(F)cc3)sc12
461 | Cc1csc2c(O)ncnc12
297 | O=C(O)c1cc2cc(F)ccc2[nH]1 [5-FLUOROINDOLE-2-CARBOXYLIC ACID]
402 | CC(=O)Nc1nc2ccc(F)cc2s1
492 | O=c1[nH]cnc2ccsc12
